Data taken from US10919885B2, “Compounds and uses thereof” (Yumanity Therapeutics, Inc., priority 2018, dated 2021).
“And” between values parts separate entries of the source, which are not always exact repeats. Identical values can stand only once.

Legend:
human SCD1 = human SCD1 (Homo sapiens (Human), UniProt O00767); assay: Yeast growth assay, strain expressing human SCD1 as the sole desaturase (reduced growth as surrogate for SCD inhibition); assay type: cell-based; details: yeast with OLE1 deleted expressing human SCD1 from a plasmid; growth read as OD600 after 40 h at 30° C.; top drug concentration 33.3 μM
Sequence of human SCD1 (O00767 whole entry): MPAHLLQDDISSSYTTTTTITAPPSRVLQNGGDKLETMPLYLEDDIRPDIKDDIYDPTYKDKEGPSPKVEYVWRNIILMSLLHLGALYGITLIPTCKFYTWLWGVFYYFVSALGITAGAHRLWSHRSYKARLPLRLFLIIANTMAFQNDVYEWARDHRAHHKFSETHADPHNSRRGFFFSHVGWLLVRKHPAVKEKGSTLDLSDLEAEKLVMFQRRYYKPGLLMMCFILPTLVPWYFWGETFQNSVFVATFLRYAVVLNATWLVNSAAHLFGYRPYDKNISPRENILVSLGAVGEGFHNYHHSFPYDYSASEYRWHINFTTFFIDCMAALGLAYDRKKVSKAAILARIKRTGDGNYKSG
In short: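 Human SCD1 or SCD5 expressed from a plasmid in OLE1-deleted yeast as the sole desaturase. Cells washed free of Tween and fatty acids, grown with compound in SD-Ura glucose medium 40 h at 30 °C; growth measured as OD600, reduced growth taken as SCD inhibition.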

human SCD5 = human SCD5 (Homo sapiens (Human), UniProt Q86SK9); assay: Yeast growth assay, strain expressing human SCD5 as the sole desaturase (reduced growth as surrogate for SCD inhibition); assay type: cell-based; details: yeast with OLE1 deleted expressing human SCD5 from a plasmid; growth read as OD600 after 40 h at 30° C.; top drug concentration 33.3 μM
Sequence of human SCD5 (Q86SK9 whole entry): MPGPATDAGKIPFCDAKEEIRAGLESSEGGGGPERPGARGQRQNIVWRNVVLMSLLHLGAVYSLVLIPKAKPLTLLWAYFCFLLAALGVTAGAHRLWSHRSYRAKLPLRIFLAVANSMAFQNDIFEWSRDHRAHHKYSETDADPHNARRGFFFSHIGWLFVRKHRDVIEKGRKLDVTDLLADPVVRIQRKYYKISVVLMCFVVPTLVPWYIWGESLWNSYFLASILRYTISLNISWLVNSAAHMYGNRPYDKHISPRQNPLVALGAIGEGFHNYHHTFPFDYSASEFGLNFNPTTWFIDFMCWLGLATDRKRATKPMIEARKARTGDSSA
Description: Strains expressing SCD1 or SCD5 as the sole desaturase, the human SCD1 and SCD5 genes were used to evaluate inhibition of SCD1/SCD5 using reduced growth as a surrogate for SCD inhibition. These yeast strains express human SCD1 or SCD5 from a plasmid harbored in a strain in which the yeast OLE1 gene is deleted.
All compound profiling experiments were performed using the same basic protocol. Yeast were cultured using standard techniques in complete synthetic media lacking uracil and containing yeast nitrogen base supplemented with 2% (w/v) glucose (SD-Ura) Starter cultures were inoculated in 3 mL SD-Ura media containing 0.01% tween and 0.2 mM palmitoleic and oleic acid. Cultures were incubated overnight in a 30° C. shaker incubator (225 rpm). Saturated morning cultures were centrifuged, washed in SD-Ura media lacking TWEEN-20 and fatty acids, and then diluted 1:20 in fresh SD-Ura media also lacking TWEEN-20 and fatty acids.
Compound administration was performed in two separate steps. First, 15 μL of SD-Ura was dispensed into clear 384-well assay plates using a MULTIDROP™ Combi reagent dispenser. […] The cultures described above were centrifuged and washed with media lacking TWEEN-20 or oleic and palmitoleic acids.
After yeast delivery, assay plates were incubated under humidified conditions at 30° C. for 40 h. Yeast growth was monitored by reading the OD600 of each well using a microplate reader (Perkin Elmer EnVision™).

Row | SMILES | IC50 (human SCD1) | IC50 (human SCD5)
1 | O=C(c1cc(-c2ccco2)on1)N1CC(F)C1 [Compound 244] | > 45 µM | > 45 µM
2 | CC(C)(C)c1cc(C(=O)Nc2cnn(Cc3ccccc3)c2)no1 [Compound 118, N-(1-benzyl-1H-pyrazol-4-yl)-5-(tert-butyl)isoxazole-3-carboxamide] | 0.15 µM | 2.7 µM
3 | CC1(c2cc(C(=O)Nc3cnn(Cc4cccc(F)c4)c3)no2)COC1 [Compound 116] | > 45 µM | > 45 µM
4 | O=C(c1cc(-c2ccccc2)on1)N1CC(Nc2ccccc2)C1 [Compound 214] | > 45 µM | > 45 µM
5 | O=C(c1cc(-c2ccncn2)on1)N1CC(Cc2ccccc2)C1 [Compound 258, (3-benzylazetidin-1-yl)(5-(pyrimidin-4-yl)isoxazol-3-yl)methanone] | 2.5 µM | 1 µM
6 | Cc1nnc(-c2cc(C(=O)Nc3cnn(Cc4ccccc4)c3)no2)s1 [Compound 163] | > 45 µM | > 45 µM
7 | Cc1ccncc1Cn1cc(NC(=O)c2cc(-c3ccccc3F)on2)cn1 [Compound 172] | > 45 µM | > 45 µM
8 | O=C(Nc1cnn(Cc2cccnc2C(F)(F)F)c1)c1cc(-c2ccccc2F)on1 [Compound 177] | > 45 µM | > 45 µM
9 | O=C(Nc1cnn(Cc2cccc(F)c2)c1)c1cc(C2COC2)on1 [Compound 139, N-(1-(3-fluorobenzyl)-1H-pyrazol-4-yl)-5-(oxetan-3-yl)isoxazole-3-carboxamide] | 0.737 µM | 6.97 µM
10 | O=C(Nc1cnn(Cc2ccccc2)c1)c1cc(-c2ccccn2)no1 [Compound 129] | > 45 µM | > 45 µM
11 | O=C(Nc1ccccc1)C1CCCN1C(=O)c1cc(-c2ccc3c(c2)OCO3)on1 (centres unmarked) [Compound 455] | > 45 µM | > 45 µM
12 | Cc1nnc(-c2cc(C(=O)Nc3cnn(Cc4ccccc4)c3)no2)o1 [Compound 165] | > 45 µM | > 45 µM
13 | Cc1c(NC(=O)c2cc(-c3ccco3)on2)cnn1Cc1ccc(Cl)c(Cl)c1 [Compound 21] | > 45 µM | > 45 µM
14 | NC(=O)c1cc(C(=O)Nc2cnn(Cc3ccccc3)c2)no1 [Compound 48] | > 45 µM | > 45 µM
15 | O=C(c1cc(-c2ccc(=O)[nH]c2)on1)N1CCC[C@H]1c1ccccc1 [Compound 451] | 37.2 µM | > 45 µM
16 | N#Cc1ccc(F)cc1Cn1cc(NC(=O)c2cc(-c3ccccc3)on2)cn1 [Compound 88] | > 45 µM | > 45 µM
17 | CN(C)CC(c1ccccc1)n1cc(NC(=O)c2cc(-c3ccccc3)on2)cn1 (centres unmarked) [Compound 113] | > 45 µM | > 45 µM
18 | CCc1cc(C(=O)Nc2cnn(Cc3cccc(F)c3)c2)no1 [Compound 104, 5-ethyl-N-(1-(3-fluorobenzyl)-1H-pyrazol-4-yl)isoxazole-3-carboxamide] | 0.066 µM | 1 µM
19 | CNC(=O)c1ccccc1-c1cc(C(=O)N2CCC(c3ccccc3)CC2)no1 [Compound 301, N-methyl-2-[3-(4-phenylpiperidine-1-carbonyl)isoxazol-5-yl]benzamide] | > 45 µM | 6.58 µM
20 | O=C(c1cc(-c2ccc3c(c2)OCO3)on1)N1CCn2ccnc2C1 [Compound 269] | > 45 µM | > 45 µM
21 | N#Cc1ccccc1-c1cc(C(=O)Nc2cnn(Cc3ccccc3)c2)no1 [Compound 135] | > 45 µM | > 45 µM
22 | COc1ccc(C2CCCN2C(=O)c2cc(-c3ccccc3)on2)cc1 (centres unmarked) [Compound 377] | > 45 µM | > 45 µM
23 | O=C(Nc1cnn(Cc2ccc(Cl)cc2)c1)c1cc(-c2ccco2)on1 [Compound 15] | > 45 µM | > 45 µM
24 | O=C(c1cc(-c2ccccc2)on1)N1CCC(O)(c2ccccc2)CC1 [Compound 296] | > 45 µM | > 45 µM
25 | N#Cc1cc(F)cc(Cn2cc(NC(=O)c3cc(-c4ccccc4)on3)cn2)c1 [Compound 98] | > 45 µM | > 45 µM
26 | O=C(c1cc(-c2ccc3c(c2)OCO3)on1)N1CCN(c2cccc(F)c2)CC1 [Compound 282] | > 45 µM | > 45 µM
27 | O=C(c1cc(-c2ccnnc2)on1)N1CCC[C@H]1c1ccccc1 [Compound 433] | 36.8 µM | > 45 µM
28 | O=C(c1cc(-c2ccc3c(c2)OCO3)on1)N1CCCC1c1cccnc1 (centres unmarked) [Compound 362] | > 45 µM | > 45 µM

Row | SMILES | IC50 (human SCD1) | IC50 (human SCD5)
29 | Cc1cnc(-c2cc(C(=O)Nc3cnn(Cc4ccccc4)c3)no2)s1 [Compound 142] | > 45 µM | > 45 µM
30 | N#Cc1cccnc1C1CCCN1C(=O)c1cc(-c2ccc3c(c2)OCO3)on1 (centres unmarked) [Compound 448] | > 45 µM | > 45 µM
31 | O=C(c1cc(-c2ccc3c(c2)OCO3)on1)N1CCC1c1ccccc1 (centres unmarked) [Compound 204, (5-(benzo[d][1,3]dioxol-5-yl)isoxazol-3-yl)(2-phenylazetidin-1-yl)methanone] | 30 µM and 33.9 µM | 3.5 µM and 2.28 µM
32 | O=C(c1cc(-c2ccc3c(c2)OCO3)on1)N1CCCC1c1ccccc1F (centres unmarked) [Compound 366] | > 45 µM | > 45 µM
33 | O=C(Nc1cnn(Cc2ccc(Cl)c(Cl)c2)c1)c1cc(-c2ccco2)on1 [Compound 29] | > 45 µM | > 45 µM
34 | Cc1nn(C)c2cc(-c3cc(C(=O)N4CCCC4c4ccnnc4)no3)ccc12 (centres unmarked) [Compound 458] | > 45 µM | > 45 µM
35 | O=C(Nc1cnn(Cc2cc(F)ccc2C(F)(F)F)c1)c1cc(-c2ccccn2)on1 [Compound 77] | > 45 µM | > 45 µM
36 | CC(C)(c1ccccc1)n1cc(NC(=O)c2cc(-c3ccccc3)on2)cn1 [Compound 64] | > 45 µM | > 45 µM
37 | O=C(Nc1cn(Cc2ccccc2)nc1C(F)(F)F)c1cc(-c2ccccc2)on1 [Compound 82] | > 45 µM | > 45 µM
38 | CS(=O)(=O)CCC(c1ccccc1)n1cc(NC(=O)c2cc(-c3ccccc3)on2)cn1 (centres unmarked) [Compound 75] | > 45 µM | > 45 µM
39 | O=C(Nc1cnn(Cc2cccc(F)c2)c1)c1cc(CO)on1 [Compound 191] | > 45 µM | > 45 µM
40 | O=C(c1cc(-c2ccccc2)on1)N1CCN(c2ccccc2F)CC1 [Compound 284] | > 45 µM | > 45 µM
41 | CNC(=O)c1ccc(-c2cc(C(=O)N3CC(Cc4ccccc4)C3)no2)cc1 [Compound 230] | > 45 µM | > 45 µM
42 | O=C(c1cc(-c2ccco2)on1)N1CC(Nc2ccccc2)C1 [Compound 210] | > 45 µM | > 45 µM
43 | NC(=O)c1cc(C(=O)N2CCC(c3ccccc3)C2)no1 (centres unmarked) [Compound 348] | 7.61 µM | > 45 µM
44 | O=C(c1cc(-c2ccco2)on1)N1CC(Oc2ccccc2)C1 [Compound 206, [5-(2-furyl)isoxazol-3-yl]-(3-phenoxyazetidin-1-yl)methanone] | 0.28 µM | 1.4 µM
45 | O=C(c1cc(-c2ccco2)on1)N1CC2(COC2)C1 [Compound 247] | > 45 µM | > 45 µM
46 | Nc1cc(C(=O)Nc2cnn(Cc3ccccc3)c2)no1 [Compound 192] | > 45 µM | > 45 µM
47 | O=C(c1cc(-c2ccc3c(c2)OCO3)on1)N1CC(Oc2ccccc2)C1 [Compound 208] | > 45 µM | > 45 µM
48 | O=C(c1cc(-c2ccc3c(c2)OCO3)on1)N1CCC(c2ccccc2)C1 (centres unmarked) [Compound 329] | > 45 µM | > 45 µM
49 | O=C(Nc1cnn(Cc2ccccc2)c1)c1cc(C2CC2)on1 [Compound 119, N-(1-benzyl-1H-pyrazol-4-yl)-5-cyclopropylisoxazole-3-carboxamide] | 0.11 µM | 2 µM
50 | CC(c1ccccc1)n1cc(NC(=O)c2cc(-c3ccccc3)on2)cn1 (centres unmarked) [Compound 51] | > 45 µM | > 45 µM
51 | O=C(c1cc(-c2ccco2)on1)N1CCC(c2ccccc2)C1 (centres unmarked) [Compound 338] | > 45 µM | 2.79 µM
52 | CSCCC(c1ccccc1)n1cc(NC(=O)c2cc(-c3ccccc3)on2)cn1 (centres unmarked) [Compound 70] | > 45 µM | > 45 µM
53 | O=C(c1cc(-c2ccccc2)on1)N1CC2(CC(c3ccccc3)C2)C1 [Compound 227, (6-phenyl-2-azaspiro[3.3]heptan-2-yl)-(5-phenylisoxazol-3-yl)methanone] | > 45 µM | 8.87 µM
54 | O=C(c1cc(-c2ccc3c(c2)OCO3)on1)N1CCC1c1cccc(F)c1 (centres unmarked) [Compound 220, [5-(1,3-benzodioxol-5-yl)isoxazol-3-yl]-[2-(3-fluorophenyl)azetidin-1-yl]methanone] | > 45 µM | 2.92 µM
55 | Cc1nnc(-c2cc(C(=O)Nc3cnn(Cc4cccc(F)c4)c3)no2)s1 [Compound 175] | > 45 µM | > 45 µM
